Test [1] has as its target Reverse transcriptase/RNase H (HIV-1). Put plainly: The 50% inhibitory concentration was measured as inhibition of DNA-dependent DNA polymerase activity.
The target is the same in test [2]. Put plainly: The 50% inhibitory concentration was measured as inhibition of RNA-dependent DNA polymerase activity.

Structures are written as SMILES.

A word on the IC50: it is the concentration at which inhibition is half-maximal. The low end stands for greater potency, the high end for weaker potency. Take `CCCCCCCCCCCCCCCC(=O)Nc1ccc(S(=O)(=O)O)c2cccc(S(=O)(=O)O)c12` [4-Hexadecanoylamino-naphthalene-1,5-disulfonic acid]: the IC50 came to 6.7 µM in test [1] and 1.6 µM in test [2].

In test [2], `CCCCCCCCCCCCCCCC(=O)Nc1c(O)cc(S(=O)(=O)O)c2ccccc12` [4-Hexadecanoylamino-3-hydroxy-naphthalene-1-sulfonic acid] had an IC50 of 3.2 µM.

As for `O=S(=O)(O)c1ccc2c(OS(=O)(=O)c3cccc4c(S(=O)(=O)Oc5cc(S(=O)(=O)O)cc6cc(S(=O)(=O)O)ccc56)cccc34)cc(S(=O)(=O)O)cc2c1` [4-[5-(3,6-disulfo-1-naphthyloxysulfonyl)-1-naphthylsulfonyloxy]-2,7-naphthalenedisulfonic acid], the IC50 in test [1] was found to be 91.3 µM; in test [2], 4.3 µM.

Regarding `O=C(Oc1cc(S(=O)(=O)O)cc2cc(S(=O)(=O)O)ccc12)c1ccc(-c2ccc(C(=O)Oc3cc(S(=O)(=O)O)cc4cc(S(=O)(=O)O)ccc34)cc2)cc1` [Biphenyl-4,4'-dicarboxylic acid bis-(3,6-disulfo-naphthalen-1-yl) ester], the values for the IC50 in test [1] and in test [2] were 6.9 µM and 3.4 µM, respectively.

Values taken from BindingDB's records for doi:10.1021/jm00042a004 (College of Pharmacy, 1994).
